Legend:
[1] = target: T1, human metastin receptor hOT7T175 (Homo sapiens, UniProt Q969F8, L364H); assay: binding inhibiting activity: 125I-metastin (40-54) binding to cell membrane fraction of h175 KB34 cells; details: room temperature 60 minutes, read-out: binding inhibiting activity, represented by the IC50 value
T1 construct: encoding the entire length of human metastin receptor hOT7T175; expressed in transfected cells; host or cells: CHO/dhFr- cells (ATCC #CRL-9096) stably transfected with pAKKO-hOT7T175; clone h175-16 was used as whole cells for FLIPR
Method in brief: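 Membranes came from CHO/dhfr− cells stably expressing human hOT7T175 (clone h175 KB34) and were diluted 250-fold for use. Binding of 125I-metastin (40-54) was run in 20 mM Tris, 2.5 mM magnesium acetate and 2 mM EGTA, pH 7.4, with protease inhibitors, either without BSA or with 1 mg/ml BSA.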

T1 sequence (Q969F8 whole entry L364H): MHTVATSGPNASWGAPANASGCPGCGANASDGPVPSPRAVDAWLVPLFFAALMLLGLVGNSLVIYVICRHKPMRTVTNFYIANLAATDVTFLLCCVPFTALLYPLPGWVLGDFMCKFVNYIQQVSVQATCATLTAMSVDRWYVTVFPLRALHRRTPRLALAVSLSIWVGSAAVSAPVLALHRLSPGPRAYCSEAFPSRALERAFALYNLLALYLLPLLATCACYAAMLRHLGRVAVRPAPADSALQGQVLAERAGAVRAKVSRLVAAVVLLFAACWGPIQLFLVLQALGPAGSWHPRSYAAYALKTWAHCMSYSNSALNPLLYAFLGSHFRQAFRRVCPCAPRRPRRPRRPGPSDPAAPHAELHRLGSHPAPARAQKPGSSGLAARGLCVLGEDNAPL

melting point	IC50 [1] [µM]	Structure (SMILES)
255 to 264 °C	≤ 10	Cl.N#Cc1c(-c2ccc(F)c(C(=O)NCCN)c2)cc(-c2ccc(F)cc2O)nc1NC(=O)c1ccco1 [Example 281, N-[4-(3-{[(2-aminoethyl)amino]carbonyl}-4-fluorophenyl)-3-cyano-6-(4-fluoro-2-hydroxyphenyl)pyridin-2-yl]-2-furamide hydrochloride]
237 to 239 °C	≤ 10	Cl.N#Cc1c(-c2cccc(NC(=O)[C@H]3CCCC[C@H]3N)c2)cc(-c2ccc(F)cc2O)nc1NC(=O)c1ccco1 [Example 283, N-{4-[3-({[(1S,2R)-2-aminocyclohexyl]carbonyl}amino)phenyl]-3-cyano-6-(4-fluoro-2-hydroxyphenyl)pyridin-2-yl}-2-furamide hydrochloride]
220 to 223 °C	≤ 10	Cl.N#Cc1c(-c2cccc(NC(=O)[C@@H]3CCCC[C@@H]3N)c2)cc(-c2ccc(F)cc2O)nc1NC(=O)c1ccco1 [Example 284, N-{4-[3-({[(1R,2S)-2-aminocyclohexyl]carbonyl}amino)phenyl]-3-cyano-6-(4-fluoro-2-hydroxyphenyl)pyridin-2-yl}-2-furamide hydrochloride]
180 to 182 °C	≤ 10	CCCC(CC(=O)Nc1cccc(-c2cc(-c3ccc(F)cc3O)nc(NC(=O)c3ccco3)c2C#N)c1)N(C)C.Cl (centres unmarked) [Example 285, N-[3-cyano-4-(3-{[3-(dimethylamino)hexanoyl]amino}phenyl)-6-(4-fluoro-2-hydroxyphenyl)pyridin-2-yl]-2-furamide hydrochloride]
205 to 207 °C	≤ 10	CN(C)[C@@H]1CCCC[C@@H]1C(=O)Nc1cccc(-c2cc(-c3ccc(F)cc3O)nc(NC(=O)c3ccco3)c2C#N)c1.Cl [Example 286, N-{3-cyano-4-[3-({[(1S,2R)-2-(dimethylamino)cyclohexyl]carbonyl}amino)phenyl]-6-(4-fluoro-2-hydroxyphenyl)pyridin-2-yl}-2-furamide hydrochloride]
217 to 218 °C	≤ 10	CN(C)[C@H]1CCCC[C@H]1C(=O)Nc1cccc(-c2cc(-c3ccc(F)cc3O)nc(NC(=O)c3ccco3)c2C#N)c1.Cl [Example 287, N-{3-cyano-4-[3-({[(1R,2S)-2-(dimethylamino)cyclohexyl]carbonyl}amino)phenyl]-6-(4-fluoro-2-hydroxyphenyl)pyridin-2-yl}-2-furamide hydrochloride]
216 to 220 °C	≤ 10	Cl.N#Cc1c(-c2cccc(NC(=O)[C@H]3CCCN3)c2)cc(-c2ccc(F)cc2O)nc1NC(=O)c1ccco1 [Example 291, N-{3-[3-cyano-6-(4-fluoro-2-hydroxyphenyl)-2-(2-furoylamino)pyridin-4-yl]phenyl}-D-prolinamide hydrochloride]
241 to 244 °C	≤ 10	Cl.N#Cc1c(-c2cccc(NC(=O)[C@H]3CCCN3)c2)cc(-c2ccc(F)cc2O)nc1NC(=O)c1nccs1 [Example 292, N-(3-{3-cyano-6-(4-fluoro-2-hydroxyphenyl)-2-[(1,3-thiazol-2-ylcarbonyl)amino]pyridin-4-yl}phenyl)-D-prolinamide hydrochloride]
≥ 250 °C (dec.)	≤ 10	Cl.N#Cc1c(-c2cccc(NC(=O)[C@H]3CCCN3)c2)cc(-c2ccc(F)cc2O)nc1NC(=O)c1ccno1 [Example 293, N-(3-{3-cyano-6-(4-fluoro-2-hydroxyphenyl)-2-[(isoxazol-5-ylcarbonyl)amino]pyridin-4-yl}phenyl)-D-prolinamide hydrochloride]
222 to 228 °C	≤ 10	Cl.N#Cc1c(-c2cccc(NC(=O)[C@H]3CCCN3)c2)cc(-c2ccc(Cl)cc2O)nc1NC(=O)c1nccs1 [Example 294, N-(3-{6-(4-chloro-2-hydroxyphenyl)-3-cyano-2-[(1,3-thiazol-2-ylcarbonyl)amino]pyridin-4-yl}phenyl)-D-prolinamide hydrochloride]

— patent US20090156646A1, “PYRIDYLPHENOL COMPOUND AND USE THEREOF” (TAKEDA PHARMACEUTICAL COMPANY LIMITED, priority 2005, published 2009)
